Assay results from article PMC9984387, “The dynamic nature of netrin-1 and the structural basis for glycosaminoglycan fragment-induced filament formation” (Nature Communications, 2023).

Molecular target: NET1ΔC (Gallus gallus, UniProt Q90922)
Experiment: X-ray crystal structure (native crystals soaked in SOS)
Assay type: binding
Details: 10 mM SOS soak 5-7 days; crystals from PEG 8000, CHES pH 9.5; one SOS per monomer, two sites SOSab and SOScd in LE-2 subdomain

O=S(=O)(O)OC[C@H]1O[C@@](COS(=O)(=O)O)(O[C@H]2O[C@H](COS(=O)(=O)O)[C@@H](OS(=O)(=O)O)[C@H](OS(=O)(=O)O)[C@H]2OS(=O)(=O)O)[C@@H](OS(=O)(=O)O)[C@@H]1OS(=O)(=O)O [SOS, sucrose-octasulfate]
X-ray crystal structure (native crystals soaked in SOS): in complex with one sucrose-octasulfate molecule bound per monomer
